Measurements taken from ChEMBL document CHEMBL1201862, “PubChem BioAssay data set” (2004).
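In this assay, cells in 96-well plates receive the compound at five concentrations for 48 hours. Endpoints are linearly interpolated between the surrounding concentrations. GI50 = concentration required for 50% inhibition of growth.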 Calls of active or inactive are those of the source. No stated cut-off is given here; in the data, active = GI50 up to about 1.1 µM and inactive = higher.

Assays:
Assay in all cases: DTP human tumour cell line panel, 48 h
[1] = tested on: SN12C
[2] = tested on: 786-0
[3] = tested on: SR
[4] = tested on: TK-10
[5] = tested on: UACC-257
[6] = tested on: CAKI-1
[7] = tested on: OVCAR-5
[8] = tested on: SF-295
[9] = tested on: Malme-3M
[10] = tested on: T47D
[11] = tested on: KM12
[12] = tested on: OVCAR-8
[13] = tested on: SK-MEL-5
[14] = tested on: RPMI-8226
[15] = tested on: HOP-92
[16] = tested on: SF-268
[17] = tested on: SNB-19
[18] = tested on: OVCAR-4
[19] = tested on: SK-OV-3
[20] = tested on: SK-MEL-2
[21] = tested on: SF-539
[22] = tested on: MCF7
[23] = tested on: A498
[24] = tested on: PC-3
[25] = tested on: EKVX
[26] = tested on: LOX IMVI
[27] = tested on: SW-620
[28] = tested on: UO-31
[29] = tested on: COLO 205
[30] = tested on: NCI-H522
[31] = tested on: M14
[32] = tested on: MDA-N
[33] = tested on: A549
[34] = tested on: HCT-15
[35] = tested on: HOP-62
[36] = tested on: UACC-62
[37] = tested on: RXF 393
[38] = tested on: HCC 2998
[39] = tested on: K562
[40] = tested on: BT-549
[41] = tested on: SK-MEL-28
[42] = tested on: NCI-H460
[43] = tested on: ACHN
[44] = tested on: HCT-116
[45] = tested on: HT-29
[46] = tested on: Hs-578T
[47] = tested on: HL-60
[48] = tested on: MDA-MB-435
[49] = tested on: NCI-H23
[50] = tested on: IGROV-1
[51] = tested on: MDA-MB-231
[52] = tested on: CCRF-CEM
[53] = tested on: NCI-H226
[54] = tested on: DU-145
[55] = tested on: SNB-75
[56] = tested on: OVCAR-3
[57] = tested on: MOLT-4
[58] = tested on: U-251

Question: What does the source list for `CC(=O)OC1C(C)OC(OC(=O)C2CCC3C(C2)OC2(CC(OC(=O)/C=C/c4ccccc4)C(C)CO2)C32CO2)C(OC2OC(C)C(O)C(OC(C)=O)C2O)C1O` (stereo not drawn)?
Answer: GI50 [1]: < 10 nM (active); GI50 [2]: < 10 nM (active); GI50 [3]: < 10 nM (active); GI50 [4]: 13.1 nM (active); GI50 [5]: < 10 nM (active); GI50 [6]: 245 nM (active); GI50 [7]: < 10 nM (active); GI50 [8]: < 10 nM (active); GI50 [9]: < 10 nM (active); GI50 [10]: < 10 nM (active); GI50 [11]: < 10 nM (active); GI50 [12]: < 10 nM (active); GI50 [13]: < 10 nM (active); GI50 [14]: < 10 nM (active); GI50 [15]: < 10 nM (active); GI50 [16]: < 10 nM (active); GI50 [17]: < 10 nM (active); GI50 [18]: < 10 nM (active); GI50 [19]: < 10 nM (active); GI50 [20]: < 10 nM (active); GI50 [21]: < 10 nM (active); GI50 [22]: < 10 nM (active); GI50 [23]: 20.5 nM (active); GI50 [24]: < 10 nM (active); GI50 [25]: < 10 nM (active); GI50 [26]: < 10 nM (active); GI50 [27]: < 10 nM (active); GI50 [28]: 499 nM (active); GI50 [29]: < 10 nM (active); GI50 [30]: < 10 nM (active); GI50 [31]: < 10 nM (active); GI50 [32]: < 10 nM (active); GI50 [33]: < 10 nM (active); GI50 [34]: 319 nM; GI50 [35]: < 12 nM (active); GI50 [36]: < 10 nM (active); GI50 [37]: < 15.2 nM (active); GI50 [38]: < 10 nM (active); GI50 [39]: < 10 nM (active); GI50 [40]: < 10 nM (active); GI50 [41]: < 10 nM (active); GI50 [42]: < 10 nM (active); GI50 [43]: < 42.1 nM (active); GI50 [44]: < 10 nM (active); GI50 [45]: < 10 nM (active); GI50 [46]: < 10 nM (active); GI50 [47]: < 10 nM (active); GI50 [48]: < 10 nM (active); GI50 [49]: < 10 nM (active); GI50 [50]: < 10 nM (active); GI50 [51]: < 10 nM (active); GI50 [52]: < 10 nM (active); GI50 [53]: < 10 nM (active); GI50 [54]: < 10 nM (active); GI50 [55]: < 10 nM (active); GI50 [56]: < 10 nM (active); GI50 [57]: < 10 nM (active); GI50 [58]: < 10 nM (active)
